Experimental data as given in US9518022B2, “Anti-HIV compounds” (priority 2014, dated 2016).

Assay: Cytotoxicity assay (AlamarBlue) in mock infected MT-2 cells
Type: cell-based
Details: human
Protocol: The present assay was used to screen candidate antiviral compounds by quantification of virus spread and production over several rounds of infection in vitro. MT-2, a HIV-1 permissive human T-cell line, was seeded in microtiter plates and was simultaneously treated with serially diluted compound and inoculated with a HIV-1 NL4-3 viral clone engineered to express Renilla luciferase in place of Nef. Following treatment, the culture was incubated for 96 hours. After the incubation, media was collected and used to estimate relative infectivity on the indicator cell line, TZM-bl. Additionally, viral spread was quantified by measuring luciferase activity via a commercially available luciferase substrate. In parallel, MT-2 cells were seeded and inoculated with mock virus in the presence of serially diluted compound. Compound toxicity was quantified 96 hours after treatment with AlamarBlue.
MT-2 (NIH Aids reagent program 237) cells were grown and maintained in an incubator at 37° C. with 5% CO2 using a basal medium of RPMI-1640 supplemented with 10% FBS. Cells were seeded in 100 μl at 2×10^4 cells/well in white walled 96-well microtiter plates. Candidate compounds were 3-fold serially diluted in the appropriate solvent. Solvent without compound was used as a no drug reference. Cells were inoculated at a multiplicity of 0.027 with an HIV-1 NL4-3 virus stock engineered to express Renilla luciferase in place of Nef. Diluted virus stock was first added to serially diluted compound. Compound and virus were delivered to cells in an equal volume (100 μl) and treated cultures were returned to the incubator for 96 hours. In parallel, plates for cytotoxicity estimates were prepared in the same way except cells were plated in clear walled 96-well microtiter plates and were mock infected.
At 96 hours post treatment, 20 μl AlamarBlue proliferation reagent was added to 200 μl treated and mock infected cultures and incubated for 3 hours at 37° C. with 5% CO2 then read at 545, 590 nm on fluorescence plate reader (Biotek).
For all assays, data was imported into Accelrys Assay Explorer 3.3. In Assay Explorer, % inhibition (antiviral or cytotoxicity) was calculated using the solvent control as a reference by the following equation: 1−(SignalCompound/SignalReference). The % Inhibition and compound concentration data was fitted using the following 4-parameter logistic model (Assay Explorer model 42):
[formula] where X is compound concentration, Y is % inhibition, D is the maximum % Inhibition (constrained to 100%), C is IC50 value or inflection point, B is the hill slope, and A is the minimum % inhibition (constrained to 0%). The IC50 value is reported as the EC50 or CC50 depending on the assay endpoint. EC50 represents the effective concentration at which virus replication is inhibited by 50 percent. CC50 represents the concentration that results in the death of 50 percent of the host cells. The selectivity or therapeutic index (SI or TI), is the ratio of CC50 over EC50 and represents the relative effectiveness in inhibiting viral replication compared to inducing cell death.

SMILES | CC50 at 96 h [µM]
COc1cc2c(cc1OCc1ccccc1)CCNC2/C=C/c1cc(C(C)C)c(OC)cc1C (stereo not drawn) [BW, 6-(benzyloxy)-7-methoxy-1-[(E)-2-[4-methoxy-2-methyl-5-(propan-2-yl)phenyl]ethenyl]-1,2,3,4-tetrahydroisoquinoline] | 1.88
COc1cc2c(cc1OCc1ccccc1)CCNC2/C=C/c1cc(OCC(C)(C)C)c(OC)cc1C (stereo not drawn) [BX, 6-(benzyloxy)-1-[(E)-2-[5-(2,2-dimethylpropoxy)-4-methoxy-2-methylphenyl]ethenyl]-7-methoxy-1,2,3,4-tetrahydroisoquinoline] | 3.4
COc1cc2c(cc1OCc1ccccc1)CCNC2/C=C/c1cc(OCC2CCNCC2)c(OC)cc1C (stereo not drawn) [BY, 6-(benzyloxy)-7-methoxy-1-[(E)-2-[4-methoxy-2-methyl-5-(piperidin-4-ylmethoxy)phenyl]ethenyl]-1,2,3,4-tetrahydroisoquinoline] | 1.97
COc1cc2c(cc1OCc1ccccc1)CCNC2/C=C/c1ccc(S(C)(=O)=O)cc1 (stereo not drawn) [BZ, 6-(benzyloxy)-1-[(E)-2-(4-methanesulfonylphenyl)ethenyl]-7-methoxy-1,2,3,4-tetrahydroisoquinoline] | 1
COc1ccc(/C=C/C2NCCc3cc(OCc4ccccc4)c(OC)cc32)c(OC)n1 (stereo not drawn) [CA, 6-(benzyloxy)-1-[(E)-2-(2,6-dimethoxypyridin-3-yl)ethenyl]-7-methoxy-1,2,3,4-tetrahydroisoquinoline] | 15.3
COc1cc2c(cc1OCc1ccccc1)CCNC2/C=C/c1ccc2c(c1)CCCO2 (stereo not drawn) [CB, 6-(benzyloxy)-1-[(E)-2-(3,4-dihydro-2H-1-benzopyran-6-yl)ethenyl]-7-methoxy-1,2,3,4-tetrahydroisoquinoline] | 5.36
COc1cc2c(cc1OCc1ccccc1)CCNC2/C=C/c1c(C)ccc2c1OCCC2 (stereo not drawn) [CC, 6-(benzyloxy)-7-methoxy-1-[(E)-2-(7-methyl-3,4-dihydro-2H-1-benzopyran-8-yl)ethenyl]-1,2,3,4-tetrahydroisoquinoline] | 5.44
COc1cc(C)c(/C=C/C2NCCc3cc(OCc4ccccc4)c(OC)cc32)cc1OCCCCN=[N+]=[N-] (stereo not drawn) [CD, 1-[(E)-2-[5-(4-azidobutoxy)-4-methoxy-2-methylphenyl]ethenyl]-6-(benzyloxy)-7-methoxy-1,2,3,4-tetrahydroisoquinoline] | 1.63
COc1cc2c(cc1OCc1ccccc1)CCNC2/C=C/c1cc2c(cc1C)OCCC2 (stereo not drawn) [CE, 6-(benzyloxy)-7-methoxy-1-[(E)-2-(7-methyl-3,4-dihydro-2H-1-benzopyran-6-yl)ethenyl]-1,2,3,4-tetrahydroisoquinoline] | 4.87
COc1cc2c(cc1OCc1ccccc1)CCNC2/C=C/c1cccc2c1OCCC2 (stereo not drawn) [CF, 6-(benzyloxy)-1-[(E)-2-(3,4-dihydro-2H-1-benzopyran-8-yl)ethenyl]-7-methoxy-1,2,3,4-tetrahydroisoquinoline] | 9.1
COc1cc2c(cc1OCc1ccccc1)CCNC2/C=C/c1cc2c(cc1C)OCC2 (stereo not drawn) [CG, 6-(benzyloxy)-7-methoxy-1-[(E)-2-(6-methyl-2,3-dihydro-1-benzofuran-5-yl)ethenyl]-1,2,3,4-tetrahydroisoquinoline] | 4.8
COc1cc2c(cc1OCc1ccccc1)CCNC2/C=C/c1cc2ccccc2n1C(=O)OC(C)(C)C (stereo not drawn) [CH, tert-butyl 2-[(E)-2-[6-(benzyloxy)-7-methoxy-1,2,3,4-tetrahydroisoquinolin-1-yl]ethenyl]-1H-indole-1-carboxylate] | 3.48
COc1cc2c(cc1OCc1ccccc1)CCNC2/C=C/c1cn(C(=O)OC(C)(C)C)c2ccccc12 (stereo not drawn) [CI, tert-butyl 3-[(E)-2-[6-(benzyloxy)-7-methoxy-1,2,3,4-tetrahydroisoquinolin-1-yl]ethenyl]-1H-indole-1-carboxylate] | 4.98
COc1cc2c(cc1OCc1ccccc1)CCNC2/C=C/c1c[nH]c2ccccc12 (stereo not drawn) [CJ, 6-(benzyloxy)-1-[(E)-2-(1H-indol-3-yl)ethenyl]-7-methoxy-1,2,3,4-tetrahydroisoquinoline] | 6.55
CCOC(=O)CCCOc1cc(/C=C/C2NCCc3cc(OCc4ccccc4)c(OC)cc32)ccc1OC (stereo not drawn) [CV, ethyl 4-{5-[(E)-2-[6-(benzyloxy)-7-methoxy-1,2,3,4-tetrahydroisoquinolin-1-yl]ethenyl]-2-methoxyphenoxy}butanoate] | 2.7
COc1cc2c(cc1OCc1ccccc1)CCNC2/C=C/c1ccccc1NC(=O)OC(C)(C)C (stereo not drawn) [CW, tert-butyl N-{2-[(E)-2-[6-(benzyloxy)-7-methoxy-1,2,3,4-tetrahydroisoquinolin-1-yl]ethenyl]phenyl}carbamate] | 23.6
COc1cc2c(cc1OCc1ccccc1)CCNC2/C=C/c1ccccc1N (stereo not drawn) [CX, 2-[(E)-2-[6-(benzyloxy)-7-methoxy-1,2,3,4-tetrahydroisoquinolin-1-yl]ethenyl]aniline] | 20.8
COc1cc2c(cc1OCc1ccccc1)CCNC2/C=C/c1ccc(OC)c(C(F)(F)F)c1 (stereo not drawn) [CY, 6-(benzyloxy)-7-methoxy-1-[(E)-2-[4-methoxy-3-(trifluoromethyl)phenyl]ethenyl]-1,2,3,4-tetrahydroisoquinoline] | 4
COc1cc2c(cc1OCc1ccccc1)CCNC2/C=C/c1cc(C)c(OC)c(C(F)(F)F)c1 (stereo not drawn) [CZ, 6-(benzyloxy)-7-methoxy-1-[(E)-2-[4-methoxy-3-methyl-5-(trifluoromethyl)phenyl]ethenyl]-1,2,3,4-tetrahydroisoquinoline] | 4
COc1cc2c(cc1OCc1ccccc1)CCNC2/C=C/c1ccccc1C(F)(F)F (stereo not drawn) [DA, 6-(benzyloxy)-7-methoxy-1-[(E)-2-[2-(trifluoromethyl)phenyl]ethenyl]-1,2,3,4-tetrahydroisoquinoline] | 10
COc1cc2c(cc1OCc1ccccc1)CCNC2/C=C/c1cccc(C(F)(F)F)c1 (stereo not drawn) [DB, 6-(benzyloxy)-7-methoxy-1-[(E)-2-[3-(trifluoromethyl)phenyl]ethenyl]-1,2,3,4-tetrahydroisoquinoline] | 10
COc1cc2c(cc1OCc1ccccc1)CCNC2/C=C/c1ccccc1N(C)C (stereo not drawn) [DC, 2-[(E)-2-[6-(benzyloxy)-7-methoxy-1,2,3,4-tetrahydroisoquinolin-1-yl]ethenyl]-N,N-dimethylaniline] | 10
COCCOc1ccccc1/C=C/C1NCCc2cc(OCc3ccccc3)c(OC)cc21 (stereo not drawn) [DE, 6-(benzyloxy)-7-methoxy-1-[(E)-2-[2-(2-methoxyethoxy)phenyl]ethenyl]-1,2,3,4-tetrahydroisoquinoline] | 10
COc1cc2c(cc1OCc1ccccc1)CCNC2/C=C/c1ccc2c(c1)OC(F)(F)O2 (stereo not drawn) [DF, 6-(benzyloxy)-1-[(E)-2-(2,2-difluoro-2H-1,3-benzodioxol-5-yl)ethenyl]-7-methoxy-1,2,3,4-tetrahydroisoquinoline] | 10
COc1ccccc1/C=C/C1NCCc2cc(OCc3ccccc3)c(OC)cc21 (stereo not drawn) [DG, 6-(benzyloxy)-7-methoxy-1-[(E)-2-(2-methoxyphenyl)ethenyl]-1,2,3,4-tetrahydroisoquinoline] | 9
COc1cc2c(cc1OCc1ccccc1)CCNC2/C=C/c1ccccc1N1CCOCC1 (stereo not drawn) [DH, 6-(benzyloxy)-7-methoxy-1-[(E)-2-[2-(morpholin-4-yl)phenyl]ethenyl]-1,2,3,4-tetrahydroisoquinoline] | 17.8
COc1ccc2cc(/C=C/C3NCCc4cc(OCc5ccccc5)c(OC)cc43)ccc2c1 (stereo not drawn) [DI, 6-(benzyloxy)-7-methoxy-1-[(E)-2-(6-methoxynaphthalen-2-yl)ethenyl]-1,2,3,4-tetrahydroisoquinoline] | 5.84
COc1cc2c(cc1OCc1ccccc1)CCNC2/C=C/c1ccc(-c2cccnc2)cc1 (stereo not drawn) [DJ, 6-(benzyloxy)-7-methoxy-1-[(E)-2-[4-(pyridin-3-yl)phenyl]ethenyl]-1,2,3,4-tetrahydroisoquinoline] | 5.86
COc1cc2c(cc1OCc1ccccc1)CCNC2/C=C/c1ccc(-n2ccnc2)cc1 (stereo not drawn) [DK, 6-(benzyloxy)-1-[(E)-2-[4-(1H-imidazol-1-yl)phenyl]ethenyl]-7-methoxy-1,2,3,4-tetrahydroisoquinoline] | 9.13
COc1cc2c(cc1OCc1ccccc1)CCNC2/C=C/c1ccc2cccnc2c1 (stereo not drawn) [DL, 7-[(E)-2-[6-(benzyloxy)-7-methoxy-1,2,3,4-tetrahydroisoquinolin-1-yl]ethenyl]quinoline] | 7
